Measured values: patent US4419517A, “4a-Aryl-trans-decahydroisoquinolines” (E. I. Du Pont de Nemours & Co., priority 1975, dated 1983)

Key:
Straub tail = Straub tail in mice; assay type: in vivo; conditions: dose not stated
Excerpt: Included in this group are the compounds of examples 9, 10, 16 and 18.

[1] = test system: phenylquinone-induced stretching or writhing syndrome; assay: Phenylquinone writhing test, oral, female white mice (modified from Siegmund et al.); assay type: in vivo; conditions: for ED50: Mus musculus, po, suspended in 1% Methocel, fasted female white mice, phenylquinone i.p. 23 or 30 min later, observed 10 min, moving average method, read-out: oral ED50 (effective analgesic dose for 50% of the mice); for analgesic activity of the optical isomers, in words: dextro and laevo forms; for ED50 (optical isomers, phenylquinone writhing test described in Example A): optical isomers of N-methyl-4a-phenyl-trans-decahydroisoquinoline, mice, test as in Example A
Protocol: In a standard mouse test modified from Siegmund et al. [Proc. Soc. Exp. Biol. Med. 95, 729 (1957)], a test compound suspended in 1% Methocel® was given orally to fasted (17-21 hours) female white mice, 5-20 animals per double blind test. Aqueous (0.01%) phenyl-p-benzoquinone (phenylquinone) was injected intraperitoneally at 23 or 30 minutes later using 0.25 ml per mouse. […] The effective analgesic dose for 50% of the mice (ED50) was calculated by the moving average method of Weil [Biometrics 8, 249 (1952)].The oral ED50 dosages of several compounds of the invention are: […]

[2] = J. Am. Chem. Soc. 72, 712 (1950); cited from earlier work

Oc1cccc([C@@]23CCCC[C@H]2CN(CC2CC2)CC3)c1 (relative stereo) [Example 10, N-Cyclopropylmethyl-4a-(m-hydroxyphenyl)-trans-decahydroisoquinoline]
Straub tail in mice (evidence for appearing to be nonaddicting) (Straub tail): do not produce the Straub tail

COc1cccc([C@@]23CCCC[C@H]2CN(CC2CC2)CC3)c1 (relative stereo) [Example 9, N-Cyclopropylmethyl-4a-(m-methoxyphenyl)-trans-decahydroisoquinoline]
ED50 [1]: 8 mg/kg | Straub tail in mice (evidence for appearing to be nonaddicting) (Straub tail): do not produce the Straub tail

CN1CC[C@]2(c3cccc(O)c3)CCCC[C@H]2C1 (relative stereo) [Example 4, N-methyl-4a-(m-hydroxyphenyl)-trans-decahydroisoquinoline]
ED50 [1]: 2.3 mg/kg

CN1CC[C@@]2(c3ccccc3)CCCC[C@@H]2C1 (relative stereo) [Laevo (Ex. 2H-1), laevo-N-Methyl-4a-phenyl-trans-decahydroisoquinoline]
analgesic activity of the optical isomers, in words ([1]; phenylquinone writhing test): active | ED50 (optical isomers, phenylquinone writhing test described in Example A) [1]: 23.0 mg/kg

CN1CC[C@@]2(c3ccccc3)CCCC[C@@H]2C1 (relative stereo) [Dextro (Ex. 2H-2), dextro-N-Methyl-4a-phenyl-trans-decahydroisoquinoline]
analgesic activity of the optical isomers, in words ([1]; phenylquinone writhing test): active | analgesic effectiveness of dextro form compared with laevo form ([1]; dextro vs laevo form, phenylquinone writhing test): significantly more effective than the laevo form | ED50 (optical isomers, phenylquinone writhing test described in Example A) [1]: 3.5 mg/kg

CN1CC[C@]2(c3ccccc3)CCCC[C@@H]2C1 (relative stereo) [N-methyl-4a-phenyl-cis-decahydroisoquinoline]
analgesic activity [2]: low analgesic activity

COc1cccc(C23CCN(CC4CC4)CC2CCC(C)C3)c1 (stereo not drawn) [Example 18, N-cyclopropylmethyl-4a-(m-methoxyphenyl)-6-methyl-trans-decahydroisoquinoline]
Straub tail in mice (evidence for appearing to be nonaddicting) (Straub tail): do not produce the Straub tail

CCCCCCN1CC[C@]2(c3cccc(O)c3)CCCC[C@H]2C1 (relative stereo) [Example 16, N-(n-Hexyl)-4a-(m-hydroxyphenyl)-trans-decahydroisoquinoline]
Straub tail in mice (evidence for appearing to be nonaddicting) (Straub tail): do not produce the Straub tail

COc1cccc([C@@]23CCCC[C@H]2CN(C)CC3)c1 (relative stereo) [Example 3-E, N-Methyl-4a-(m-methoxyphenyl)-trans-decahydroisoquinoline]
ED50 [1]: 3 mg/kg
